The target of one assay is BRD4-BD1 (Homo sapiens (Human), UniProt O60885). The assay is described as follows: BRD4 AlphaScreen assay (BRD4-BD1). It counts as binding. The following applies: biotin-labeled tetra-acetylated histone H4 peptide. The essentials:
(§1)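 AlphaScreen displacement at room temperature: 75 min with biotin-H4Ac4 peptide (50 nM) and sub-nanomolar BRD4-BD1 or BD2, then 75 min dark incubation with donor/acceptor beads (2-4 μg/mL). Buffer Tris-HCl pH 7.5 with Tween-20, BSA, DTT; DMSO 1.25% for BD1, 0.83% for BD2. IC50 by curve fitting.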
(In general: Bead proximity is the source of the signal in Alpha formats.)

Another assay has as its target BRD4-BD2 (Homo sapiens (Human), UniProt O60885). The assay can be described thus: BRD4 AlphaScreen assay (BRD4-BD2). The following applies: biotin-labeled tetra-acetylated histone H4 peptide. It counts as binding. The essentials:
as §1

In a further assay the test system is KMS.12.BM cells. The assay is described as follows: KMS.12.BM cell viability assay (ATP quantitation, Cell Titer-GLO). It counts as cell-based. The following applies: human myeloma cell line, 3 days, concentration required for 50% cell death. The protocol:
KMS. 12.BM cell line (human myeloma) was purchased from JCRB (Osaka, Japan) and maintained in RPMI with 10% FBS culture medium. To measure the cytotoxic activity of the compounds through ATP quantitation, the KMS. 12.BM cells are plated in the RPMI culture medium at 5000 cells/well/per 100 μL into a 96-well polystyrene clear black tissue culture plate (Greiner-bio-one through VWR, NJ), in the presence or absence of a concentration range of test compounds. After 3 days, […] Cell Titer-GLO Luminescent (Promega, Madison, Wis.) cell culture agent is added to each well for 10 minutes at room temperature to stabilize the luminescent signal. This determines the number of viable cells in culture based on quantitation of the ATP present, which signals the presence of metabolically active cells. Luminescence is measured with the Top Count 384 (Packard Bioscience through Perkin Elmer, Boston, Mass.). Compound inhibition is determined relative to cells cultured with no drug and the IC50 is reported as the compound concentration required for 50% cell death.

Each structure is given as a SMILES string.

In the case of `COc1cc(-c2cn(C)c(=O)c3[nH]ccc23)c2c(c1)N(C(C)C)C(=O)C(C(C)C)O2` (stereo not shown) [Example 16, 2,4-diisopropyl-6-methoxy-8-(6-methyl-7-oxo-6,7-dhydro-1H-pyrrolo[2,3-c]pyridin-4-yl)-2H-1,4-benzoxazin-3(4H)-one], the IC50 was […] on BRD4-BD1, […] on BRD4-BD2 and […] in the assay on KMS.12.BM cells.

As to `CC(O)c1cc(-c2cn(C)c(=O)c3[nH]ccc23)c2c(c1)N(C)C(=O)C(C)(C)O2` (stereo not shown) [Example 83, 6-(1-hydroxyethyl)-2,2,4-trimethyl-8-(6-methyl-7-oxo-6,7-dihydro-1H-pyrrolo[2,3-c]pyridin-4-yl)-2H-1,4-benzoxazin-3(4H)-one], the IC50 at BRD4-BD1 and against BRD4-BD2 was not above 100 nM throughout.

Regarding `CC(C)C1Oc2c(cc(S(C)(=O)=O)cc2-c2cn(C)c(=O)c3[nH]ncc23)NC1=O` (stereo not shown) [Example 84, 2-isopropyl-8-(6-methyl-7-oxo-6,7-dihydro-1H-pyrazolo[3,4-c]pyridin-4-yl)-6-(methylsulfonyl)-2H-1,4-benzoxazin-3(4H)-one], the IC50 at BRD4-BD1 and against BRD4-BD2 was not above 100 nM in each case.

As a reminder, the IC50 is the concentration at which inhibition is half-maximal.

For the origin of these results see patent publication US9957268B2, “1H-pyrrolo[2,3,c]pyridin-7(6H)-ones and pyrazolo[3,4-c]pyridin-7(6H)-ones as inhibitors of BET proteins” (Incyte Corporation, priority 2014, dated 2018).
